Measurements taken from the NIST ThermoML archive (doi:10.1016/j.tca.2018.04.014).
± gives the expanded uncertainty stated by the source.

Assays:
[1] = DSC
[2] = Molar enthalpy of transition or fusion; settings: DSC

Structure (SMILES): CC1(C)[C@H]2CC[C@]1(C)C(=O)C2 [(1S)-1,7,7-trimethylbicyclo[2.2.1]heptan-2-one]
- Triple point temperature ([1]; Crystal 1): 453.9 ± 3.1 K
- Triple point temperature ([1]; Crystal 2): 375.3 ± 3.1 K
- Triple point temperature ([1]; Crystal 3): 246.3 ± 3.1 K
- Molar enthalpy of transition or fusion ([2]; Crystal 2): 0.0382 ± 0.17 kcal/mol
- Molar enthalpy of transition or fusion ([2]; Crystal 3): 3.17 ± 0.184 kcal/mol

Structure (SMILES): CC1(C)[C@H]2CC[C@]1(C)[C@H](O)C2 [(1S-endo)-1,7,7-trimethylbicyclo[2.2.1]heptan-2-ol]
- Triple point temperature ([1]; Crystal 1): 479.7 ± 3.1 K
- Triple point temperature ([1]; Crystal 2): 347.4 ± 3.1 K
- Triple point temperature ([1]; Crystal 3): 212.3 ± 3.1 K
- Molar enthalpy of transition or fusion ([2]; Crystal 2): 0.715 ± 0.174 kcal/mol
- Molar enthalpy of transition or fusion ([2]; Crystal 3): 0.172 ± 0.172 kcal/mol

Structure (SMILES): CC1(C)[C@@H]2CC[C@@]1(C)[C@@H](O)C2 [d-borneol]
- Triple point temperature ([1]; Crystal 1): 481.6 ± 3.1 K
- Triple point temperature ([1]; Crystal 2): 346.7 ± 3.1 K
- Triple point temperature ([1]; Crystal 3): 213.5 ± 3.1 K
- Molar enthalpy of transition or fusion ([2]; Crystal 2): 0.724 ± 0.174 kcal/mol
- Molar enthalpy of transition or fusion ([2]; Crystal 3): 0.179 ± 0.172 kcal/mol

Structure (SMILES): CC1(C)[C@@H]2CC[C@@]1(C)C(=O)C2 [d-camphor]
- Triple point temperature ([1]; Crystal 1): 452.7 ± 3.1 K
- Triple point temperature ([1]; Crystal 2): 372.3 ± 3.1 K
- Triple point temperature ([1]; Crystal 3): 242.8 ± 3.1 K
- Molar enthalpy of transition or fusion ([2]; Crystal 2): 0.0359 ± 0.17 kcal/mol
- Molar enthalpy of transition or fusion ([2]; Crystal 3): 2.68 ± 0.182 kcal/mol
